# Source: PMC6689899, “An essential bifunctional enzyme in Mycobacterium tuberculosis for itaconate dissimilation and leucine catabolism” (Proceedings of the National Academy of Sciences of the …, 2019)
# Legend:
# Rv2498c = molecular target: T1, Rv2498c (Mycobacterium tuberculosis, UniProt P9WPE1)
# T1 construct: gene citE
# [1] = system: CC(=O)SCCNC(=O)CCNC(=O)[C@H](O)C(C)(C)COP(=O)(O)OP(=O)(O)OC[C@H]1O[C@@H](n2cnc3c(N)ncnc32)[C@H](O)[C@@H]1OP(=O)(O)O; assay: purified protein
# T1 sequence (P9WPE1 whole entry): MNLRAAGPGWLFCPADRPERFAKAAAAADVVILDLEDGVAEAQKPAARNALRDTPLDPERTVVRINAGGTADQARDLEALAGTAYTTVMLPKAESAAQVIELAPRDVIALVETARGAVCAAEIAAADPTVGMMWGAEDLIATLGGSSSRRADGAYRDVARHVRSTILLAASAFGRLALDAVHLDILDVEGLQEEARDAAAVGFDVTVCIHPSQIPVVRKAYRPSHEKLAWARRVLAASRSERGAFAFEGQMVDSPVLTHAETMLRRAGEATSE
Compound,X-ray crystal structure (Rv2498c),Km [1],kcat/Km [1]
CC(C)(COP(=O)(O)OP(=O)(O)OC[C@H]1O[C@@H](n2cnc3c(N)ncnc32)[C@H](O)[C@@H]1OP(=O)(O)O)[C@@H](O)C(=O)NCCC(=O)NCCS [CoA],complexes with (S)-citramalyl-CoA (PDB ID code 6AQ4) and with acetoacetate:CoA (PDB ID code 6AS5),–,–
CC(=O)CC(=O)O [acetoacetate],complexes with (S)-citramalyl-CoA (PDB ID code 6AQ4) and with acetoacetate:CoA (PDB ID code 6AS5),–,–
Rv1837c (Mycobacterium tuberculosis H37Rv),–,45 ± 9 µM,1.7e+06 M⁻¹ s⁻¹
